Reference: patent US5538971A, “Benzoquinoxalines, pharmaceutical compositions containing them and their use in treating schizophrenia” (Sandoz Ltd., priority 1991, dated 1996)
Like-named read-outs stand apart in the source and are kept apart here.

Key:
rat [1] = assay: inhibition of locomotor activity increase induced by a D-1 agonist; format: in vivo; details: for inhibition of locomotor activity increase (in words): rat, D-1 agonist 10 mg/kg p.o., for the invention's compounds doses of ca. 0.1 to 10 mg/kg p.o. or ca. 0.1 to 0.5 mg/kg s.c.
Experimental: In this test, the substance to be tested is applied one hour before the D-1 agonist, and the locomotor activity is measured under red light using photoelectric cells.

mouse = assay: apomorphine induced rearing test; format: in vivo
Experimental: Thus when administered to the mouse at doses of ca. 0.05 to ca. 1 mg/kg p.o., there is observed a significant inhibition of the rearing induced by subcutaneous administration of 0.5 mg/kg of apomorphine. In this test, each mouse is contained in a glass cylinder (20 cm high, 8 cm diameter) on absorbent cardboard and rearing is quantified by accumulating the time spent with both forepaws off the ground during three 1-minute periods at 10 minute intervals after apomorphine administration. […] This test detects both classical and atypical anti-psychotics and thus has predictive value for efficacy in schizophrenia.

[2] = biological target: T1, dopamine receptors of the D-1 type (Bos taurus, UniProt Q95136); assay: inhibition of the dopamine-induced stimulation of adenylate cyclase in homogenates of bovine retina; format: biochemical; details: calculated from IC50 according to Cheng and Prusoff, read-out: pKi, adenylate cyclase functional test (converted)
T1 construct: homogenates of bovine retina; from tissue; host or cells: bovine retina homogenate
T1 sequence (Q95136 whole entry): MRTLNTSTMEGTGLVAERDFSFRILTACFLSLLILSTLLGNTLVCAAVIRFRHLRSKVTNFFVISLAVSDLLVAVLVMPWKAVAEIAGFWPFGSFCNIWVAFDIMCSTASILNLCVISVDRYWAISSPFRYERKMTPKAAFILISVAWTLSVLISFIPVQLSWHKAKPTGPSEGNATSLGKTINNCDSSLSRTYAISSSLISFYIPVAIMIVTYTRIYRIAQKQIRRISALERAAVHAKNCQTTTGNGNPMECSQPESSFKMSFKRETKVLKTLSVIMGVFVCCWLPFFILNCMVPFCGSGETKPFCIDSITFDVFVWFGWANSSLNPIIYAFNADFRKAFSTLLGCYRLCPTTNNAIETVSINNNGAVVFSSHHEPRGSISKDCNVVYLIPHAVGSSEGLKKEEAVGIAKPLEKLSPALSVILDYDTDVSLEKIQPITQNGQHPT
Description: At concentrations of ca. 1 nmol/l to ca. […] the compounds according to the invention effect strong inhibition of the dopamine-induced stimulation of adenylate cyclase in homogenates of bovine retina [for the method see R. Markstein, Journal Neural. Transmission 51, 39-59 (1981)].
This activity also indicates the use of the compounds according to the invention in schizophrenia.

rat [3] = assay: cataleptogenic activity (catalepsy); format: in vivo; details: rat, 1, 3.2 and 10 mg/kg p.o., observation period of 8 hours
Experimental: Furthermore at doses of ca. 1 to ca. 10 mg/kg p.o., the compounds according to the invention effect no catalepsy of the rat. Cataleptogenic activity is assessed as described by G. Stille et al. in Arzneimittel Forschung 15, 841-843 (1965). The criterion for catalepsy is fulfilled when posture retention time is longer than 10 seconds. In view of the lack of cataleptogenic activity, the risk that the compounds according to the invention might cause extra-pyramidal side effects is improbable.

[4] = Mus musculus, po, 0.5 h, read-out: ED50, apomorphine-induced rearing
[5] = Mus musculus, sc, 0.5 h, read-out: ED50, apomorphine-induced rearing

Question: For `CN1CC[C@@H](c2ccccc2)[C@@H]2c3cccc4[nH]c(Cl)c(c34)C[C@H]21` (stereo in doubt) [phenylergoline, (+)-(5R)[5β, 9α, 10α]-2-chloro-6-methyl-9-phenylergoline, reference compound], which inhibition at 2 mg/kg (rat [1]; Rattus norvegicus, Rat2, po, read-out: inhibition of locomotor activity increase) is on record?
Answer: The inhibition at 2 mg/kg was 45%.

Question: For `CN1CCN(C2=Nc3cc(Cl)ccc3Nc3ccccc32)CC1` [Clozapine, reference compound], which “inhibition of locomotor activity increase (in words)” value (rat [1]) is on record?
Answer: Its value is “active”.

Question: And the ED50 (mouse; po, 0.5 h, mouse, p.o., after 30 minutes, apomorphine 0.5 mg/kg s.c., read-out: ED50, apomorphine-induced rearing)?
Answer: The ED50 was 4.3 mg/kg.

Question: What about the ED50 (mouse; sc, 0.5 h, mouse, s.c., after 30 minutes, apomorphine 0.5 mg/kg s.c., read-out: ED50, apomorphine-induced rearing) of the same compound?
Answer: The ED50 was 0.66 mg/kg.

Question: For `Cc1cc(Cl)ccc1N1CCN(C)[C@@H]2Cc3cccc(O)c3C[C@H]21` [Example 2, (-)-[4aR,10aR]-l,2,3,4,4a,5,10,10a-octahydro-4-(4'-chloro-2'-methyl-phenyl)-1-methyl-benzo[g]quinoxaline-6-ol], which inhibition at 1 mg/kg (rat [1]; Rattus norvegicus, po, read-out: inhibition of locomotor activity increase) is on record?
Answer: Its inhibition at 1 mg/kg is 76%.

Question: And the “inhibition of locomotor activity increase (in words)” value (rat [1])?
Answer: Its value is “inhibits the locomotor activity increase more potently”.

Question: And the Ki [2]?
Answer: The Ki was 50.1 nM.

Question: What about the catalepsy (rat [3]) of the same compound?
Answer: Its catalepsy is “fails to produce catalepsy”.

Question: And the ED50 (mouse; [4])?
Answer: Its ED50 is 0.38 mg/kg.

Question: What about the ED50 (mouse; Mus musculus, po, 1 h, read-out: E50, apomorphine-induced rearing after subchronic treatment) of the same compound?
Answer: The ED50 was 0.28 mg/kg.

Question: What about the ED50 (mouse; Mus musculus, po, 1 h, read-out: ED50, apomorphine-induced rearing) of the same compound?
Answer: Its ED50 is 0.14 mg/kg.

Question: And the ED50 (mouse; [5])?
Answer: The ED50 was 0.033 mg/kg.

Question: And the ED50 (mouse; Mus musculus, sc, 1 h, read-out: ED50, apomorphine-induced rearing)?
Answer: The ED50 was 0.04 mg/kg.

Question: `O=C(CCCN1CCC(O)(c2ccc(Cl)cc2)CC1)c1ccc(F)cc1` [Haloperidol, reference compound] was tested. Which ED50 (mouse; [4]) did it give?
Answer: The ED50 was 0.03 mg/kg.

Question: And the ED50 (mouse; [5])?
Answer: The ED50 was 0.008 mg/kg.
